{"source": "patent US8927548B2", "about": "“Triazole compounds that modulate HSP90 activity” (Synta Pharmaceuticals Corp., priority 2006, dated 2015)", "key": {"[1]": {"system": "Her2", "experiment": "Degradation of Her2 in BT-474 cells, Method 1 (Western blot)", "assay_type": "cell-based, human", "details": "0.5 μM, overnight", "experimental": "Human high-Her2 breast carcinoma BT474 (HTB-20), SK-BR-3 (HTB-30) and MCF-7 breast carcinoma (HTB-22) from American Type Culture Collection, VA, USA were grown in Dulbecco's modified Eagle's medium with 4 mM L-glutamine and antibiotics ([…] penicillin and 100 μg/ml streptomycine; GibcoBRL). To obtain exponential cell growth, cells were trypsinized, counted and seeded at a cell density of 0.5×10^6 cells/ml regularly, every 3 days. All experiments were performed on day 1 after cell passage.\nBT-474 cells are treated with 0.5 μM, 2 μM, or 5 μM of 17AAG (a positive control) or 0.5 μM, 2 μM, or 5 μM of a compound of the invention overnight in DMEM medium. After treatment, each cytoplasmic sample is prepared from 1×10^6 cells by incubation of cell lysis buffer (#9803, cell Signaling Technology) on ice for 10 minutes. The resulting supernatant used as the cytosol fractions is dissolved with sample buffer for SDS-PAGE and run on a SDS-PAGE gel, blotted onto a nitrocellulose membrane by using semi-dry transfer. Non-specific binding to nitrocellulose is blocked with 5% skim milk in TBS with 0.5% Tween at room temperature for 1 hour, then probed with anti-Her2/ErB2 mAb (rabbit IgG, #2242, Cell Signaling) and anti-Tubulin (T9026, Sigma) as housekeeping control protein. […]"}, "[2]": {"system": "Hsp90", "experiment": "Degradation of Her2 / inhibition of Hsp90, Method 2: MV-4-11 cell survival after 72 hours (Cell Counting Kit-8)", "assay_type": "cell-based, human", "details": "Table 4, IC50 range, MV-4-11 cells", "experimental": "MV-4-11 cells (20,000 cells/well) were cultured in 96-well plates and maintained at 37° C. for several hours. The cells were treated with a compound of the invention or 17AAG (a positive control) at various concentrations and incubated at 37° C. for 72 hours. Cell survival was measured with Cell Counting Kit-8 (Dojindo Laboratories, Cat. # CK04). […] Tables 4-6: IC50 range of compounds of the invention for inhibition of Hsp90"}}, "note": "Structures can show the parent of a compound that is named as a salt."}
{"smiles": "C=CCNC1=C2C[C@@H](C)C[C@H](OC)[C@H](O)[C@@H](C)/C=C(\\C)[C@H](OC(N)=O)[C@@H](OC)/C=C\\C=C(/C)C(=O)NC(=CC1=O)C2=O", "note": "[Compound 17AAG, 17-allylamino-17-demethoxygeldanamycin]", "values": [{"measurement": "degradation of Her2", "setting": "[1]", "value": "partial degradation"}]}
{"smiles": "CC(=O)N1Cc2ccc(-n3c(O)nnc3-c3cc(C(C)C)c(O)cc3O)cc2C1", "note": "[Compound 23, 1-(5-(3-(2,4-dihydroxy-5-isopropylphenyl)-5-hydroxy-4H-1,2,4-triazol-4-yl)isoindolin-2-yl)ethanone]", "values": [{"measurement": "IC50", "setting": "[2]", "value": "< 500", "unit": "nM"}]}
{"smiles": "CC(C)c1cc(-c2nnc(O)n2-c2ccc3c(c2)CCN3C(=O)C2CCC(N)CC2)c(O)cc1O", "note": "(stereo not drawn) [Compound 39, (4-Aminocyclohexyl)(5-(3-(2,4-dihydroxy-5-isopropylphenyl)-5-hydroxy-4H-1,2,4-triazol-4-yl)indolin-1-yl)methanone hydrochloride]", "values": [{"measurement": "IC50", "setting": "[2]", "value": "< 1000", "unit": "nM"}]}
